Species: Rattus norvegicus
Experiment: DrugMatrix - Regimen: Daily Repeat
Assay type: toxicity, organism-based, Sprague-Dawley
Design: regimen Daily Repeat, gender Male, age 6-8 weeks
Conditions: in vivo, po, route oral GAVAGE, vehicle .5 % CMC; for BASOPHIL / EOSINOPHIL / ERYTHROCYTE COUNT / HEMATOCRIT / HEMOGLOBIN / LEUKOCYTE COUNT / LYMPHOCYTE / MEAN CORPUSCULAR HEMOGLOBIN / MEAN CORPUSCULAR HEMOGLOBIN CONCENTRATION / MEAN CORPUSCULAR VOLUME / MONOCYTE / NEUTROPHIL / PLATELET COUNT: tissue Blood; for ALANINE AMINOTRANSFERASE / ALBUMIN / ALKALINE PHOSPHATASE / ASPARTATE AMINOTRANSFERASE / BLOOD UREA NITROGEN / CHLORIDE / CHOLESTEROL / CREATINE PHOSPHOKINASE / CREATININE / GLUCOSE / PHOSPHORUS / POTASSIUM / SODIUM / TOTAL BILIRUBIN / TOTAL PROTEIN: tissue Plasma
[1] = 0 mg/kg, 72 h, dose level Control, time 3 day
[2] = 0 mg/kg, 120 h, dose level Control, time 5 day
[3] = 10 mg/kg, 72 h, dose level Low, time 3 day
[4] = 10 mg/kg, 120 h, dose level Low, time 5 day
[5] = 1500 mg/kg, 72 h, dose level High, time 3 day
[6] = 1500 mg/kg, 120 h, dose level High, time 5 day

For COc1ccc(Cl)cc1C(=O)NCCc1ccc(S(=O)(=O)NC(=O)NC2CCCCC2)cc1 [GLYBURIDE], the BASOPHIL [1] was 0%, the EOSINOPHIL [1] was 0% and the “ERYTHROCYTE COUNT” value [1] was 6.34 x10E6/uL. The HEMATOCRIT [1] was 37.62%, the HEMOGLOBIN [1] was 14.82 G/DL and the “LEUKOCYTE COUNT” value [1] was 11.18 x10E3/uL. The LYMPHOCYTE [1] was 87.5%, the “MEAN CORPUSCULAR HEMOGLOBIN” value [1] was 23.48 pg and the “MEAN CORPUSCULAR HEMOGLOBIN CONCENTRATION” value [1] was 39.5 G/DL. The “MEAN CORPUSCULAR VOLUME” value [1] was 59.45 fL, the MONOCYTE [1] was 1.67% and the NEUTROPHIL [1] was 10.83%. For the same compound, the “PLATELET COUNT” value [1] was 1074.83 x10E3/uL, the “ALANINE AMINOTRANSFERASE” value [1] was 36.5 u/L and the ALBUMIN [1] was 3.9 G/DL. For the same compound, the “ALKALINE PHOSPHATASE” value [1] was 370.17 u/L, the “ASPARTATE AMINOTRANSFERASE” value [1] was 63.17 u/L and the “BLOOD UREA NITROGEN” value [1] was 16.83 mg/dL. For the same compound, the CHLORIDE [1] was 99.33 MEQ/L, the CHOLESTEROL [1] was 64.33 mg/dL and the “CREATINE PHOSPHOKINASE” value [1] was 127 u/L. The CREATININE [1] was 0.55 mg/dL, the GLUCOSE [1] was 173.5 mg/dL and the PHOSPHORUS [1] was 10.08 mg/dL. For the same compound, the POTASSIUM [1] was 6.23 MEQ/L, the SODIUM [1] was 143.5 MEQ/L and the “TOTAL BILIRUBIN” value [1] was 0.52 mg/dL. The “TOTAL PROTEIN” value [1] was 6.35 G/DL, the BASOPHIL [2] was 0% and the EOSINOPHIL [2] was 0.17%. The “ERYTHROCYTE COUNT” value [2] was 6.12 x10E6/uL, the HEMATOCRIT [2] was 37.08% and the HEMOGLOBIN [2] was 14.82 G/DL. The “LEUKOCYTE COUNT” value [2] was 11.87 x10E3/uL, the LYMPHOCYTE [2] was 83.33% and the “MEAN CORPUSCULAR HEMOGLOBIN” value [2] was 24.25 pg. The “MEAN CORPUSCULAR HEMOGLOBIN CONCENTRATION” value [2] was 39.97 G/DL, the “MEAN CORPUSCULAR VOLUME” value [2] was 60.65 fL and the MONOCYTE [2] was 1.5%. For the same compound, the NEUTROPHIL [2] was 15%, the “PLATELET COUNT” value [2] was 1042.83 x10E3/uL and the “ALANINE AMINOTRANSFERASE” value [2] was 46 u/L. The ALBUMIN [2] was 3.82 G/DL, the “ALKALINE PHOSPHATASE” value [2] was 369.5 u/L and the “ASPARTATE AMINOTRANSFERASE” value [2] was 65 u/L. The “BLOOD UREA NITROGEN” value [2] was 16.33 mg/dL, the CHLORIDE [2] was 100.67 MEQ/L and the CHOLESTEROL [2] was 57.17 mg/dL. The “CREATINE PHOSPHOKINASE” value [2] was 130 u/L, the CREATININE [2] was 0.53 mg/dL and the GLUCOSE [2] was 163.33 mg/dL. For the same compound, the PHOSPHORUS [2] was 9.53 mg/dL, the POTASSIUM [2] was 6.27 MEQ/L and the SODIUM [2] was 144.83 MEQ/L. The “TOTAL BILIRUBIN” value [2] was 0.55 mg/dL, the “TOTAL PROTEIN” value [2] was 6.32 G/DL and the BASOPHIL [3] was 0%. The EOSINOPHIL [3] was 0.33%, the “ERYTHROCYTE COUNT” value [3] was 6.67 x10E6/uL and the HEMATOCRIT [3] was 40.2%. For the same compound, the HEMOGLOBIN [3] was 15.57 G/DL, the “LEUKOCYTE COUNT” value [3] was 12.13 x10E3/uL and the LYMPHOCYTE [3] was 90.33%. For the same compound, the “MEAN CORPUSCULAR HEMOGLOBIN” value [3] was 23.33 pg, the “MEAN CORPUSCULAR HEMOGLOBIN CONCENTRATION” value [3] was 38.7 G/DL and the “MEAN CORPUSCULAR VOLUME” value [3] was 60.3 fL. The MONOCYTE [3] was 1.33%, the NEUTROPHIL [3] was 8% and the “PLATELET COUNT” value [3] was 1148 x10E3/uL. For the same compound, the “ALANINE AMINOTRANSFERASE” value [3] was 30.33 u/L, the ALBUMIN [3] was 4.1 G/DL and the “ALKALINE PHOSPHATASE” value [3] was 317.67 u/L. The “ASPARTATE AMINOTRANSFERASE” value [3] was 61 u/L, the “BLOOD UREA NITROGEN” value [3] was 15 mg/dL and the CHLORIDE [3] was 99.33 MEQ/L. For the same compound, the CHOLESTEROL [3] was 66.33 mg/dL, the “CREATINE PHOSPHOKINASE” value [3] was 164.67 u/L and the CREATININE [3] was 0.5 mg/dL. For the same compound, the GLUCOSE [3] was 160.33 mg/dL, the PHOSPHORUS [3] was 11.87 mg/dL and the POTASSIUM [3] was 6.23 MEQ/L. The SODIUM [3] was 144.67 MEQ/L, the “TOTAL BILIRUBIN” value [3] was 0.3 mg/dL and the “TOTAL PROTEIN” value [3] was 6.77 G/DL. The BASOPHIL [4] was 0%, the EOSINOPHIL [4] was 0% and the “ERYTHROCYTE COUNT” value [4] was 6.4 x10E6/uL. For the same compound, the HEMATOCRIT [4] was 37.3%, the HEMOGLOBIN [4] was 14.67 G/DL and the “LEUKOCYTE COUNT” value [4] was 11.77 x10E3/uL. The LYMPHOCYTE [4] was 91.67%, the “MEAN CORPUSCULAR HEMOGLOBIN” value [4] was 22.97 pg and the “MEAN CORPUSCULAR HEMOGLOBIN CONCENTRATION” value [4] was 39.33 G/DL. For the same compound, the “MEAN CORPUSCULAR VOLUME” value [4] was 58.27 fL, the MONOCYTE [4] was 0.67% and the NEUTROPHIL [4] was 7.67%. For the same compound, the “PLATELET COUNT” value [4] was 1048 x10E3/uL, the “ALANINE AMINOTRANSFERASE” value [4] was 33 u/L and the ALBUMIN [4] was 3.77 G/DL. The “ALKALINE PHOSPHATASE” value [4] was 328 u/L, the “ASPARTATE AMINOTRANSFERASE” value [4] was 52.33 u/L and the “BLOOD UREA NITROGEN” value [4] was 13.67 mg/dL. The CHLORIDE [4] was 98.33 MEQ/L, the CHOLESTEROL [4] was 53.33 mg/dL and the “CREATINE PHOSPHOKINASE” value [4] was 128.67 u/L. For the same compound, the CREATININE [4] was 0.57 mg/dL, the GLUCOSE [4] was 174 mg/dL and the PHOSPHORUS [4] was 10.77 mg/dL. The POTASSIUM [4] was 5.8 MEQ/L, the SODIUM [4] was 144.33 MEQ/L and the “TOTAL BILIRUBIN” value [4] was 0.37 mg/dL. The “TOTAL PROTEIN” value [4] was 6.13 G/DL, the BASOPHIL [5] was 0% and the EOSINOPHIL [5] was 0%. The “ERYTHROCYTE COUNT” value [5] was 6.36 x10E6/uL, the HEMATOCRIT [5] was 37.7% and the HEMOGLOBIN [5] was 14.87 G/DL. For the same compound, the “LEUKOCYTE COUNT” value [5] was 13.87 x10E3/uL, the LYMPHOCYTE [5] was 88.67% and the “MEAN CORPUSCULAR HEMOGLOBIN” value [5] was 23.43 pg. For the same compound, the “MEAN CORPUSCULAR HEMOGLOBIN CONCENTRATION” value [5] was 39.47 G/DL, the “MEAN CORPUSCULAR VOLUME” value [5] was 59.33 fL and the MONOCYTE [5] was 1%. For the same compound, the NEUTROPHIL [5] was 10.33%, the “PLATELET COUNT” value [5] was 1260.33 x10E3/uL and the “ALANINE AMINOTRANSFERASE” value [5] was 32 u/L. For the same compound, the ALBUMIN [5] was 3.4 G/DL, the “ALKALINE PHOSPHATASE” value [5] was 223.33 u/L and the “ASPARTATE AMINOTRANSFERASE” value [5] was 50 u/L. The “BLOOD UREA NITROGEN” value [5] was 12 mg/dL, the CHLORIDE [5] was 104.33 MEQ/L and the CHOLESTEROL [5] was 52.67 mg/dL. The “CREATINE PHOSPHOKINASE” value [5] was 133.33 u/L, the CREATININE [5] was 0.4 mg/dL and the GLUCOSE [5] was 122.67 mg/dL. For the same compound, the PHOSPHORUS [5] was 9.57 mg/dL, the POTASSIUM [5] was 6.9 MEQ/L and the SODIUM [5] was 150.33 MEQ/L. For the same compound, the “TOTAL BILIRUBIN” value [5] was 0.23 mg/dL, the “TOTAL PROTEIN” value [5] was 5.47 G/DL and the BASOPHIL [6] was 0%. For the same compound, the EOSINOPHIL [6] was 0%, the “ERYTHROCYTE COUNT” value [6] was 6.13 x10E6/uL and the HEMATOCRIT [6] was 36.93%. For the same compound, the HEMOGLOBIN [6] was 14.7 G/DL, the “LEUKOCYTE COUNT” value [6] was 14.7 x10E3/uL and the LYMPHOCYTE [6] was 94.33%. For the same compound, the “MEAN CORPUSCULAR HEMOGLOBIN” value [6] was 24.03 pg, the “MEAN CORPUSCULAR HEMOGLOBIN CONCENTRATION” value [6] was 39.8 G/DL and the “MEAN CORPUSCULAR VOLUME” value [6] was 60.3 fL. The MONOCYTE [6] was 0.67%, the NEUTROPHIL [6] was 5% and the “PLATELET COUNT” value [6] was 1089.67 x10E3/uL. For the same compound, the “ALANINE AMINOTRANSFERASE” value [6] was 37 u/L, the ALBUMIN [6] was 3.67 G/DL and the “ALKALINE PHOSPHATASE” value [6] was 297.33 u/L. The “ASPARTATE AMINOTRANSFERASE” value [6] was 58.33 u/L, the “BLOOD UREA NITROGEN” value [6] was 12.67 mg/dL and the CHLORIDE [6] was 99.67 MEQ/L. For the same compound, the CHOLESTEROL [6] was 63.33 mg/dL, the “CREATINE PHOSPHOKINASE” value [6] was 139.33 u/L and the CREATININE [6] was 0.5 mg/dL. For the same compound, the GLUCOSE [6] was 135 mg/dL, the PHOSPHORUS [6] was 11.5 mg/dL and the POTASSIUM [6] was 6.2 MEQ/L. The SODIUM [6] was 145.33 MEQ/L, the “TOTAL BILIRUBIN” value [6] was 0.33 mg/dL and the “TOTAL PROTEIN” value [6] was 5.93 G/DL.

From ChEMBL document CHEMBL3885881, “DrugMatrix”
